Legend:
anticorps anti-nef = assay: ELISA for detection of anti-nef antibodies on coated peptides or nef; format: binding, humain; conditions: for intensité de l'immunoréactivité (OD), Serum 1: Serum 1, anti-nef positive; for intensité de l'immunoréactivité (OD), Serum 1 / intensité de l'immunoréactivité (OD), Serum 2 / intensité de l'immunoréactivité (OD), Serum 3 / intensité de l'immunoréactivité (OD), Serum 4 / intensité de l'immunoréactivité (OD), Serum 5 / intensité de l'immunoréactivité (OD), Serum 6 / intensité de l'immunoréactivité (OD), Serum 7 / intensité de l'immunoréactivité (OD), Serum 8 / intensité de l'immunoréactivité (OD), Serum 9 / intensité de l'immunoréactivité (OD), Serum 10 / intensité de l'immunoréactivité (OD), Serum 11 / intensité de l'immunoréactivité (OD), Serum 12 / intensité de l'immunoréactivité (OD), Serum 13 / intensité de l'immunoréactivité (OD), Serum 14 / intensité de l'immunoréactivité (OD), Serum 15 / intensité de l'immunoréactivité (OD), Serum 16 / intensité de l'immunoréactivité (OD), Serum 17 / intensité de l'immunoréactivité (OD), Serum 18 / intensité de l'immunoréactivité (OD), Serum 19 / intensité de l'immunoréactivité (OD), Serum 20 / intensité de l'immunoréactivité (OD), Serum 21 / intensité de l'immunoréactivité (OD), Serum 22 / intensité de l'immunoréactivité (OD), Serum 23 / intensité de l'immunoréactivité (OD), Serum 24 / intensité de l'immunoréactivité (OD), Serum 25 / intensité de l'immunoréactivité (OD), Serum 26 / intensité de l'immunoréactivité (OD), Serum 27 / intensité de l'immunoréactivité (OD), Serum 28 / intensité de l'immunoréactivité (OD), Serum 29 / intensité de l'immunoréactivité (OD), Serum 30 / intensité de l'immunoréactivité (OD), Serum 31 / intensité de l'immunoréactivité (OD), Serum 32 / intensité de l'immunoréactivité (OD), Serum 33: 500 ng coated per well; for intensité de l'immunoréactivité (OD), Serum 2: Serum 2, anti-nef positive; for intensité de l'immunoréactivité (OD), Serum 3: Serum 3, anti-nef positive; for intensité de l'immunoréactivité (OD), Serum 4: Serum 4, anti-nef positive; for intensité de l'immunoréactivité (OD), Serum 5: Serum 5, anti-nef positive; for intensité de l'immunoréactivité (OD), Serum 6: Serum 6, anti-nef positive; for intensité de l'immunoréactivité (OD), Serum 7: Serum 7, anti-nef positive; for intensité de l'immunoréactivité (OD), Serum 8: Serum 8, anti-nef positive; for intensité de l'immunoréactivité (OD), Serum 9: Serum 9, anti-nef positive; for intensité de l'immunoréactivité (OD), Serum 10: Serum 10, anti-nef positive; for intensité de l'immunoréactivité (OD), Serum 11: Serum 11, anti-nef positive; for intensité de l'immunoréactivité (OD), Serum 12: Serum 12, anti-nef positive; for intensité de l'immunoréactivité (OD), Serum 13: Serum 13, anti-nef positive; for intensité de l'immunoréactivité (OD), Serum 14: Serum 14, anti-nef positive; for intensité de l'immunoréactivité (OD), Serum 15: Serum 15, anti-nef positive; for intensité de l'immunoréactivité (OD), Serum 16: Serum 16, anti-nef positive; for intensité de l'immunoréactivité (OD), Serum 17: Serum 17, anti-nef positive; for intensité de l'immunoréactivité (OD), Serum 18: Serum 18, anti-nef positive; for intensité de l'immunoréactivité (OD), Serum 19: Serum 19, anti-nef positive; for intensité de l'immunoréactivité (OD), Serum 20: Serum 20, anti-nef positive; for intensité de l'immunoréactivité (OD), Serum 21: Serum 21, anti-nef positive; for intensité de l'immunoréactivité (OD), Serum 22: Serum 22, anti-nef positive; for intensité de l'immunoréactivité (OD), Serum 23: Serum 23, anti-nef positive; for intensité de l'immunoréactivité (OD), Serum 24: Serum 24, anti-nef positive; for intensité de l'immunoréactivité (OD), Serum 25: Serum 25, anti-nef positive; for intensité de l'immunoréactivité (OD), Serum 26: Serum 26, anti-nef positive; for intensité de l'immunoréactivité (OD), Serum 27: Serum 27, anti-nef positive; for intensité de l'immunoréactivité (OD), Serum 28: Serum 28, anti-nef positive; for intensité de l'immunoréactivité (OD), Serum 29: Serum 29, anti-nef positive; for intensité de l'immunoréactivité (OD), Serum 30: Serum 30, anti-nef positive; for intensité de l'immunoréactivité (OD), Serum 31: Serum 31, anti-nef positive; for intensité de l'immunoréactivité (OD), Serum 32: Serum 32, anti-nef negative control serum; for intensité de l'immunoréactivité (OD), Serum 33: Serum 33, anti-nef negative control serum
[1] = test system: anticorps anti-protéine F; assay: Western blot test on peptide spots with sera of HIV-1 infected patients; format: binding, humain; parameters: key to réaction avec sérum CHA 1/300, 10µl / réaction avec sérum LOM 1/100, 10µl / réaction avec sérum LOM 1/100, 5µl / réaction avec sérum CHA 1/300, 5µl / réaction avec sérum CHA 1/300, 2µl / réaction avec sérum CHA 1/300, 1µl / réaction avec sérum 1545 1/200, 10µl: ++ signifiant une réaction plus marquée; conditions: for réaction avec sérum 1545 1/200, 10µl: serum 1545 diluted 1/200
Method: Pour les besoins du test, les différents peptides PF16, PF19, PF13, PF17 utilisés sont dilués à une concentration de 2 mg/ml.
Sur une bande de papier BIORAD pour transblot, on dépose différents spots : 1µl, 2µl, 5µl, 10µl.
Après séchage on pratique un test Western Blot classique en utilisant comme anticorps des sérums de patients infectés par le virus HIV-1, positifs pour la protéine F, à des dilutions variant de 1/100 à 1/300.
Les peptides testés permettent d'aboutir aux résultats résumés dans le tableau 2 avec trois sérums différents anti-F ++ (++ signifiant une réaction plus marquée).

[2] = spot 10µl of peptide at 2 mg/ml

Row | Sequence | intensité de l'immunoréactivité (OD), Serum 1 (anticorps anti-nef) | intensité de l'immunoréactivité (OD), Serum 2 (anticorps anti-nef) | intensité de l'immunoréactivité (OD), Serum 3 (anticorps anti-nef) | intensité de l'immunoréactivité (OD), Serum 4 (anticorps anti-nef) | intensité de l'immunoréactivité (OD), Serum 5 (anticorps anti-nef) | intensité de l'immunoréactivité (OD), Serum 6 (anticorps anti-nef) | intensité de l'immunoréactivité (OD), Serum 7 (anticorps anti-nef) | intensité de l'immunoréactivité (OD), Serum 8 (anticorps anti-nef) | intensité de l'immunoréactivité (OD), Serum 9 (anticorps anti-nef) | intensité de l'immunoréactivité (OD), Serum 10 (anticorps anti-nef) | intensité de l'immunoréactivité (OD), Serum 11 (anticorps anti-nef) | intensité de l'immunoréactivité (OD), Serum 12 (anticorps anti-nef) | intensité de l'immunoréactivité (OD), Serum 13 (anticorps anti-nef) | intensité de l'immunoréactivité (OD), Serum 14 (anticorps anti-nef) | intensité de l'immunoréactivité (OD), Serum 15 (anticorps anti-nef) | intensité de l'immunoréactivité (OD), Serum 16 (anticorps anti-nef) | intensité de l'immunoréactivité (OD), Serum 17 (anticorps anti-nef) | intensité de l'immunoréactivité (OD), Serum 18 (anticorps anti-nef) | intensité de l'immunoréactivité (OD), Serum 19 (anticorps anti-nef) | intensité de l'immunoréactivité (OD), Serum 20 (anticorps anti-nef) | also measured
1 | XASRDLEKHGAITSSNTAATNAACAWLEAQEEEEZ [PF13] | + (pour OD = 0,2 à 0,4) | - (pour une densité optique (OD) inférieure à 0,2) | +++ (pour OD = 0,8 à 2,0) | + (pour OD = 0,2 à 0,4) | - (pour une densité optique (OD) inférieure à 0,2) | - (pour une densité optique (OD) inférieure à 0,2) | ++ (pour OD = 0,4 à 0,8) | ++ (pour OD = 0,4 à 0,8) | ++ (pour OD = 0,4 à 0,8) | - (pour une densité optique (OD) inférieure à 0,2) | - (pour une densité optique (OD) inférieure à 0,2) | - (pour une densité optique (OD) inférieure à 0,2) | - (pour une densité optique (OD) inférieure à 0,2) | ++ (pour OD = 0,4 à 0,8) | - (pour une densité optique (OD) inférieure à 0,2) | - (pour une densité optique (OD) inférieure à 0,2) | - (pour une densité optique (OD) inférieure à 0,2) | - (pour une densité optique (OD) inférieure à 0,2) | - (pour une densité optique (OD) inférieure à 0,2) | - (pour une densité optique (OD) inférieure à 0,2) | intensité de l'immunoréactivité (OD), Serum 21 (anticorps anti-nef): - (pour une densité optique (OD) inférieure à 0,2); intensité de l'immunoréactivité (OD), Serum 22 (anticorps anti-nef): - (pour une densité optique (OD) inférieure à 0,2); intensité de l'immunoréactivité (OD), Serum 23 (anticorps anti-nef): - (pour une densité optique (OD) inférieure à 0,2); intensité de l'immunoréactivité (OD), Serum 24 (anticorps anti-nef): - (pour une densité optique (OD) inférieure à 0,2); intensité de l'immunoréactivité (OD), Serum 25 (anticorps anti-nef): - (pour une densité optique (OD) inférieure à 0,2); intensité de l'immunoréactivité (OD), Serum 26 (anticorps anti-nef): - (pour une densité optique (OD) inférieure à 0,2); intensité de l'immunoréactivité (OD), Serum 27 (anticorps anti-nef): - (pour une densité optique (OD) inférieure à 0,2); intensité de l'immunoréactivité (OD), Serum 28 (anticorps anti-nef): - (pour une densité optique (OD) inférieure à 0,2); intensité de l'immunoréactivité (OD), Serum 29 (anticorps anti-nef): ++ (pour OD = 0,4 à 0,8); intensité de l'immunoréactivité (OD), Serum 30 (anticorps anti-nef): - (pour une densité optique (OD) inférieure à 0,2); intensité de l'immunoréactivité (OD), Serum 31 (anticorps anti-nef): - (pour une densité optique (OD) inférieure à 0,2); intensité de l'immunoréactivité (OD), Serum 32 (anticorps anti-nef): - (pour une densité optique (OD) inférieure à 0,2); intensité de l'immunoréactivité (OD), Serum 33 (anticorps anti-nef): - (pour une densité optique (OD) inférieure à 0,2); réaction avec sérum 1545 1/200, 10µl [1, 2]: tr; réaction avec sérum CHA 1/300, 1µl ([1]; serum CHA diluted 1/300, spot 1µl of peptide at 2 mg/ml): tr; réaction avec sérum CHA 1/300, 2µl ([1]; serum CHA diluted 1/300, spot 2µl of peptide at 2 mg/ml): tr
2 | XCRGGLEGMFYSERRHKILNIYLEKEEGIIADZ [PF19] |  |  |  |  |  |  |  |  |  |  |  |  |  |  |  |  |  |  |  |  | réaction avec sérum CHA 1/300, 5µl ([1]; serum CHA diluted 1/300, spot 5µl of peptide at 2 mg/ml): ++; réaction avec sérum CHA 1/300, 10µl ([1]; serum CHA diluted 1/300, spot 10µl of peptide at 2 mg/ml): ++; réaction avec sérum LOM 1/100, 5µl ([1]; serum LOM diluted 1/100 (column outside the heading of positive sera), spot 5µl of peptide at 2 mg/ml): tr; réaction avec sérum LOM 1/100, 10µl ([1]; serum LOM diluted 1/100 (column outside the heading of positive sera), spot 10µl of peptide at 2 mg/ml): tr; réaction avec sérum P.6. 1/200, 5µl ([1]; serum P.6. diluted 1/200, spot 5µl of peptide at 2 mg/ml): tr
3 | XCYKLVPVEPDKVEEANKGENTSLLHPVSLHGMDDPEREVLEWRFDSRL AFHHVARELHPEYFKNCZ [PF17, protéine F HIV-1, séquence 141-205] | +++ (pour OD = 0,8 à 2,0) | +++ (pour OD = 0,8 à 2,0) | + (pour OD = 0,2 à 0,4) | +++ (pour OD = 0,8 à 2,0) | +++ (pour OD = 0,8 à 2,0) | +++ (pour OD = 0,8 à 2,0) | - (pour une densité optique (OD) inférieure à 0,2) | - (pour une densité optique (OD) inférieure à 0,2) | - (pour une densité optique (OD) inférieure à 0,2) | ++ (pour OD = 0,4 à 0,8) | + (pour OD = 0,2 à 0,4) | - (pour une densité optique (OD) inférieure à 0,2) | ++ (pour OD = 0,4 à 0,8) | - (pour une densité optique (OD) inférieure à 0,2) | +++ (pour OD = 0,8 à 2,0) | ++ (pour OD = 0,4 à 0,8) | ++ (pour OD = 0,4 à 0,8) | +++ (pour OD = 0,8 à 2,0) | +++ (pour OD = 0,8 à 2,0) | ++ (pour OD = 0,4 à 0,8) | nombre de sérums anti-nef positifs ayant réagi (anticorps anti-nef; ELISA, out of 31 anti-nef positive sera): 26; intensité de l'immunoréactivité (OD), Serum 21 (anticorps anti-nef): +++ (pour OD = 0,8 à 2,0); intensité de l'immunoréactivité (OD), Serum 22 (anticorps anti-nef): +++ (pour OD = 0,8 à 2,0); intensité de l'immunoréactivité (OD), Serum 23 (anticorps anti-nef): ++ (pour OD = 0,4 à 0,8); intensité de l'immunoréactivité (OD), Serum 24 (anticorps anti-nef): +++ (pour OD = 0,8 à 2,0); intensité de l'immunoréactivité (OD), Serum 25 (anticorps anti-nef): +++ (pour OD = 0,8 à 2,0); intensité de l'immunoréactivité (OD), Serum 26 (anticorps anti-nef): ++ (pour OD = 0,4 à 0,8); intensité de l'immunoréactivité (OD), Serum 27 (anticorps anti-nef): + (pour OD = 0,2 à 0,4); intensité de l'immunoréactivité (OD), Serum 28 (anticorps anti-nef): ++ (pour OD = 0,4 à 0,8); intensité de l'immunoréactivité (OD), Serum 29 (anticorps anti-nef): ++ (pour OD = 0,4 à 0,8); intensité de l'immunoréactivité (OD), Serum 30 (anticorps anti-nef): +++ (pour OD = 0,8 à 2,0); intensité de l'immunoréactivité (OD), Serum 31 (anticorps anti-nef): ++ (pour OD = 0,4 à 0,8); intensité de l'immunoréactivité (OD), Serum 32 (anticorps anti-nef): - (pour une densité optique (OD) inférieure à 0,2); intensité de l'immunoréactivité (OD), Serum 33 (anticorps anti-nef): - (pour une densité optique (OD) inférieure à 0,2); réaction avec sérum 1545 1/200, 10µl [1, 2]: tr

Reference: patent EP0349354A1, “Peptides PF10 to PF19 from a retro virus HIV, method for the synthesis of these peptides and their use, particularly in diagnostics” (INSTITUT PASTEUR, priority 1988, dated 1990)
